From patent US10428013B2, “Amide compound, preparation method and uses thereof” (Shanghai Institute of Phamaceutical Industry, priority 2011, dated 2019) come the findings set out here.

One assay has as its system Hyperlipemia Model of SD Rat. As to the kind of experiment: Screening in the hyperlipemia model of SD rat (fat emulsion by gavage; serum lipids). Format: in vivo. As to conditions: hyperlipemia SD rats, 40 mg/kg, dosed 21 days, X ± SD. The procedure: Materials and Methods for Screening with the Compounds Prepared in Experiment 1 to 21 in the Hyperlipemia Model of SD Rat
SD rats, male, 150-180 g, supplied by Shanghai Slaccas Laboratory Animal Company Limited.
Preparation of fat emulsion: 500 g lard oil was weighed and placed into a vessel, heated for melting, and upon heating up to the temperature of 100° C., 200 g cholesterol was added and fully dissolved, then 20 g propylthiouracil was added. After full stirring and dissolving, 500 ml Tween 80 was added to give an oil phase. Meanwhile, 600 ml distilled water and 400 ml 1,2-propylene glycol were heated to 60° C. in water bath, and then 40 g sodium deoxycholate was added with stirring, until full dissolution, to give an aqueous phase. The aqueous phase was added into the oil phase and fully and uniformly mixed, to prepare the fat emulsion.
Formulation of the solution for the compounds: an appropriate amount of compounds was triturated with appropriate amount of Tween 80 for homogeneous dispersion, and then sufficient CMC-Na solution was added and fully triturated, suspended to give the solution for the compounds.
The animals were fed for acclimation for 3 days, with 8 animals as blank control (Control) according to weight, and the rest was subject to intragastric administration of fat emulsion at 1 ml/100 g weight at A.M. 9:00-11:00 daily for continuous 2 weeks; the animals were fasted for 12 hours, and had 1 ml blood sampled at orbital cavity, which was measured with the Hitachi Automatic Biochemical Analyzer 7080 for serum cholesterol (CHO), triglyceride (TO), low-density lipoprotein (LDL-C) and high-density lipoprotein (HDL-C), with the animals having CHO of 4-7 mmol/L for experiment.
The animals dosed with fat emulsion for 2 weeks were divided into model group (Model), simvastatin group (Sim, 10 mg/kg) and compound group (40 mg/kg) according to weight, and continued to receive intragastric administration with fat emulsion; at the same time, the dosed group was administered with respective amount of drug, and the model group was administered with equal volume of solvent. Fat emulsion was dosed by gavage at A.M., and drug was dosed at P.M. The animals were weighed at Monday, and were observed. The animals were dosed for continuous 21 days, and fasted for 12 hours, with 1 ml blood sampling at orbital cavity. The liver was exposed and observed for pathologic condition; after slicing and weighing, it was fixed into the 4% formaldehyde solution for pathologic examination.
The Hitachi Automatic Biochemical Analyzer 7080 was used to measure serum cholesterol (CHO), triglyceride (TG), low-density lipoprotein (LDL-C) and high-density lipoprotein (HDL-C).
Laboratory data were expressed as X±SD (Standard Deviation), and comparison between groups was carried out by t-testing.
On to `CC(C)(Oc1ccc(CCNC(=O)c2ccc(Cl)cc2)cc1)C(=O)NCC(=O)c1ccc(O)cc1` [Compound 01], for which the “CHO1 Concentration (serum cholesterol)” value amounted to 14.84 ± 1.06 mmol/L, the “HDL-C Concentration (serum high-density lipoprotein)” value (“HDL-C Concentration” for short) is given as 1.56 ± 0.25 mmol/L, the “LDL-C Concentration (serum low-density lipoprotein)” value (from here on “LDL-C Concentration”) is given as 13.90 ± 1.23 mmol/L and the “TG Concentration (serum triglyceride)” value was determined as 0.66 ± 0.13 mmol/L.

For `CC(C)(Oc1ccc(CCNC(=O)c2ccc(Cl)cc2)cc1)C(=O)NCC(=O)c1ccc(OC(=O)C(C)(C)Oc2ccc(CCNC(=O)c3ccc(Cl)cc3)cc2)cc1` [Compound 02], the “CHO1 Concentration (serum cholesterol)” value amounted to 17.29 ± 3.23 mmol/L, the “HDL-C Concentration” value is 1.68 ± 0.38 mmol/L, the “LDL-C Concentration” value is 16.01 ± 2.99 mmol/L and the “TG Concentration (serum triglyceride)” value was determined as 0.68 ± 0.18 mmol/L.

Take `CC(C)(Oc1ccc(C(=O)c2ccc(Cl)cc2)cc1)C(=O)NCC(=O)c1ccc(O)cc1` [Compound 03]: the “CHO1 Concentration (serum cholesterol)” value stood at 12.63 ± 2.77 mmol/L, the “HDL-C Concentration” value amounted to 1.54 ± 0.20 mmol/L, the “LDL-C Concentration” value is 11.11 ± 2.45 mmol/L and the “TG Concentration (serum triglyceride)” value worked out at 0.99 ± 0.18 mmol/L.

As to `CC(C)(Oc1ccc(C(=O)c2ccc(Cl)cc2)cc1)C(=O)NCC(=O)c1ccc(OC(=O)C(C)(C)Oc2ccc(C(=O)c3ccc(Cl)cc3)cc2)cc1` [Compound 04], the “CHO1 Concentration (serum cholesterol)” value was 10.02 ± 1.80 mmol/L, the “HDL-C Concentration” value is given as 1.82 ± 0.19 mmol/L, the “LDL-C Concentration” value was found to be 9.84 ± 1.37 mmol/L and the “TG Concentration (serum triglyceride)” value is 1.15 ± 0.12 mmol/L.

For `Cc1ccc(C)c(OCCCC(C)(C)C(=O)NCC(=O)c2ccc(O)cc2)c1` [Compound 05], the “CHO1 Concentration (serum cholesterol)” value came out at 15.30 ± 2.45 mmol/L, the “HDL-C Concentration” value came out at 1.54 ± 0.24 mmol/L, the “LDL-C Concentration” value came to 14.38 ± 2.12 mmol/L and the “TG Concentration (serum triglyceride)” value turned out to be 1.31 ± 0.15 mmol/L.

With `Cc1ccc(C)c(OCCCC(C)(C)C(=O)NCC(=O)c2ccc(OC(=O)C(C)(C)CCCOc3cc(C)ccc3C)cc2)c1` [Compound 06], the “CHO1 Concentration (serum cholesterol)” value was found to be 16.37 ± 2.26 mmol/L, the “HDL-C Concentration” value was determined as 1.49 ± 0.29 mmol/L, the “LDL-C Concentration” value amounted to 15.78 ± 2.00 mmol/L and the “TG Concentration (serum triglyceride)” value was determined as 1.53 ± 0.16 mmol/L.

With `CC(C)(Oc1ccc(C2CC2(Cl)Cl)cc1)C(=O)NCC(=O)c1ccc(O)cc1` (stereo not drawn) [Compound 07], the “CHO1 Concentration (serum cholesterol)” value was determined as 14.99 ± 1.45 mmol/L, the “HDL-C Concentration” value is 1.74 ± 0.46 mmol/L, the “LDL-C Concentration” value came to 13.90 ± 1.21 mmol/L and the “TG Concentration (serum triglyceride)” value came out at 1.39 ± 0.16 mmol/L.

With `CC(C)(Oc1ccc(C2CC2(Cl)Cl)cc1)C(=O)NCC(=O)c1ccc(OC(=O)C(C)(C)Oc2ccc(C3CC3(Cl)Cl)cc2)cc1` (stereo not drawn) [Compound 08], the “CHO1 Concentration (serum cholesterol)” value turned out to be 12.92 ± 2.10 mmol/L, the “HDL-C Concentration” value was determined as 2.12 ± 0.27 mmol/L, the “LDL-C Concentration” value worked out at 11.41 ± 1.90 mmol/L and the “TG Concentration (serum triglyceride)” value amounted to 0.83 ± 0.13 mmol/L.

Turning to `CC(C)(Oc1ccc(Cl)cc1)C(=O)NCC(=O)c1ccc(O)cc1` [Compound 09], the “CHO1 Concentration (serum cholesterol)” value worked out at 13.64 ± 2.14 mmol/L, the “HDL-C Concentration” value is reported as 2.18 ± 0.22 mmol/L, the “LDL-C Concentration” value is reported as 11.64 ± 2.00 mmol/L and the “TG Concentration (serum triglyceride)” value was found to be 0.95 ± 0.14 mmol/L.

For the molecule `CC(C)(Oc1ccc(Cl)cc1)C(=O)NCC(=O)c1ccc(OC(=O)C(C)(C)Oc2ccc(Cl)cc2)cc1` [Compound 10], the “CHO1 Concentration (serum cholesterol)” value was determined as 9.73 ± 1.79 mmol/L, the “HDL-C Concentration” value came to 2.66 ± 0.24 mmol/L, the “LDL-C Concentration” value was found to be 8.27 ± 1.46 mmol/L and the “TG Concentration (serum triglyceride)” value is listed as 0.94 ± 0.15 mmol/L.

Turning to `CCC(C)(Oc1ccc(C2(c3ccc(OC(C)(CC)C(=O)NCC(=O)c4ccc(O)cc4)cc3)CCCCC2)cc1)C(=O)NCC(=O)c1ccc(O)cc1` (stereo not drawn) [Compound 12], the “CHO1 Concentration (serum cholesterol)” value is 20.17 ± 1.27 mmol/L, the “HDL-C Concentration” value is listed as 1.895 ± 0.39 mmol/L, the “LDL-C Concentration” value is reported as 19.31 ± 1.52 mmol/L and the “TG Concentration (serum triglyceride)” value amounted to 0.75 ± 0.25 mmol/L.

For `CCC(CC)(CCCOc1cc(C)cc(C)c1)C(=O)NCC(=O)c1cccc(O)c1` [Compound 13], the “CHO1 Concentration (serum cholesterol)” value is 20.17 ± 1.27 mmol/L, the “HDL-C Concentration” value is 1.895 ± 0.39 mmol/L, the “LDL-C Concentration” value is reported as 19.31 ± 1.52 mmol/L and the “TG Concentration (serum triglyceride)” value is reported as 0.75 ± 0.25 mmol/L.

In the case of `COc1ccc(OCCCC(C)(C)C(=O)NCC(=O)c2ccc(O)c(C)c2)cc1C` [Compound 14], the “CHO1 Concentration (serum cholesterol)” value is listed as 20.66 ± 3.23 mmol/L, the “HDL-C Concentration” value was 2.25 ± 0.22 mmol/L, the “LDL-C Concentration” value is recorded as 20.78 ± 3.46 mmol/L and the “TG Concentration (serum triglyceride)” value was 0.99 ± 0.28 mmol/L.

On to `Cc1cc(C(=O)CCNC(=O)C(C)(CCCOc2cc(Cl)ccc2C)C(C)C)ccc1O` (stereo not drawn) [Compound 15], for which the “CHO1 Concentration (serum cholesterol)” value came to 15.00 ± 2.75 mmol/L, the “HDL-C Concentration” value is 1.89 ± 0.26 mmol/L, the “LDL-C Concentration” value worked out at 14.04 ± 3.12 mmol/L and the “TG Concentration (serum triglyceride)” value stood at 1.34 ± 0.48 mmol/L.

On to `Cc1ccc(C)c(OCCCC(C)(C)C(=O)NCC(=N)c2ccc(O)c(Cl)c2)c1` [Compound 17], for which the “CHO1 Concentration (serum cholesterol)” value is given as 10.54 ± 3.23 mmol/L, the “HDL-C Concentration” value came out at 1.82 ± 0.22 mmol/L, the “LDL-C Concentration” value turned out to be 8.13 ± 3.46 mmol/L and the “TG Concentration (serum triglyceride)” value turned out to be 0.88 ± 0.28 mmol/L.

Turning to `Cc1ccc(C)c(OCCCC(C)(C)C(=O)NC2CCC(C(=S)c3ccc(O)cc3)CC2)c1` (stereo not drawn) [Compound 18], the “CHO1 Concentration (serum cholesterol)” value is given as 15.04 ± 2.73 mmol/L, the “HDL-C Concentration” value is 1.56 ± 0.51 mmol/L, the “LDL-C Concentration” value was found to be 13.47 ± 3.68 mmol/L and the “TG Concentration (serum triglyceride)” value came to 1.25 ± 0.33 mmol/L.

Regarding `Cc1ccc(C)c(OCCCC(C)(C)C(=O)NCC(=O)c2cc(O)cc(O)c2)c1` [Compound 19], the “CHO1 Concentration (serum cholesterol)” value is 11.12 ± 1.01 mmol/L, the “HDL-C Concentration” value was determined as 1.36 ± 0.66 mmol/L, the “LDL-C Concentration” value was 10.76 ± 1.25 mmol/L and the “TG Concentration (serum triglyceride)” value is on record as 0.94 ± 0.06 mmol/L.

A further assay deals with Cholelithiasis Model of Golden Hamster. The assay is described as follows: Screening in the cholelithiasis model of golden hamster (biochemical measurement of bile). It is filed as in vivo, golden hamsters. As to conditions: 40 mg/kg, dosed 45 days, X ± SD. The procedure:
Screening with the Compounds Prepared in Experiment 1 to 21 in the Cholelithiasis Model of Golden Hamster
68 male golden hamsters, 50-60 g, supplied by Shanghai Slaccas Laboratory Animal Company Limited.
The animals were fed for acclimation for 3 days, with 8 animals as blank control (Control) according to weight. The control was dosed with normal rat feedstuff, and the rest was dosed with feedstuff leading to cholelithiasis (sucrose 32.1%, cheese 64.2%, cholesterol 0.2%, salt 3%, vitamin B1 […], concentrated fish liver oil 0.4%). The animals were fed for acclimation for another 7 days, and divided into model group (Model), simvastatin group (Sim, 10 mg/kg), Ursodesoxycholic acid group (UDCA, 40 mg/kg), and compound group, n=6/group.
[…] 2:00-3:00 daily. The animals were weighed at Monday, and observed for hair color, stool, and variation of activation level.
The animals were dosed for continuous 45 days and then fasted for 12 hours; were anesthetized with 30 mg/kg sodium secobarbital via intraperitoneal injection; had 1 ml blood sampled via abdominal aorta; had gallbladder exposed, with an orifice on the gallbladder being clamped by the ophthalmological pliers and bile in the gallbladder being sucked with 1 ml syringe.
The Hitachi Automatic Biochemical Analyzer 7080 was used to measure cholesterol (CHO), total total bilirubin (TBIL), total bile acid (TBA) and total protein (TP) in bile.
Laboratory data was expressed as X±SD, and comparison of measurement data between groups was carried out by t-testing, with non-parametric testing for enumeration data.
In the case of `C[C@H](CCC(=O)O)[C@H]1CC[C@H]2[C@@H]3[C@@H](O)C[C@@H]4C[C@H](O)CC[C@]4(C)[C@H]3CC[C@]12C` [Ursodesoxycholic acid, reference compound], the “Cholesterol (CHO) in bile” value came out at 0.98 ± 0.47 mmol/L, the “Total bile acid (TBA) in bile” value was 12.23 ± 3.04 mmol/L, the “Total protein (TP) in bile” value was found to be 28.63 ± 10.37 g/L and the “Total total bilirubin (TBIL) in bile” value is 89.4 ± 45.3 µmol/L.
